# According to patent publication US7105695B2, “Synthesis of combretastatin A-2 prodrugs” (priority 2001, dated 2006):
# Like-named read-outs stand apart in the source and are kept apart here.
# Assays:
# BXPC-3 = test: Human cancer cell line growth inhibition, pancreas BXPC-3; type: cell-based; conditions: BXPC-3 human cancer cell line
# MCF-7 = test: Human cancer cell line growth inhibition, breast MCF-7; type: cell-based; conditions: MCF-7 human cancer cell line
# SF5268 = test: Human cancer cell line growth inhibition, CNS gliob SF5268; type: cell-based
# NCI-H460 = test: Human cancer cell line growth inhibition, lung-NSC NCI-H460; type: cell-based
# KM20L2 = test: Human cancer cell line growth inhibition, colon KM20L2; type: cell-based
# DU-145 = test: Human cancer cell line growth inhibition, prostate DU-145; type: cell-based; conditions: DU-145 human cancer cell line
# NCI 60-cell screen = test: NCI 60-cell screen; type: cell-based, human; conditions: mean ± SE, read-out: mean-panel GI50
# Neisseria gonorrhoeae = test: Broth microdilution susceptibility assay, Neisseria gonorrhoeae; type: cell-based
# Excerpt: (§1) Compounds were screened against the bacteria Stenotrophomonas maltophilia, Micrococcus luteus, Staphylococcus aureus, Escherichia coli, Enterobacter cloacae, Enterococcus faecalis, Streptococcus pneumoniae, Neisseria gonorrhoeae, and the fungi Candida albicans and Cryptococcus neoformans, according to established broth microdilution susceptibility assays (NCCLS approved standard M7-A4, 1997; NCCLS approved standard M27-A, 1997). The minimum inhibitory concentration was defined as the lowest concentration of compound that inhibited all visible growth of the test organism (optically clear). Assays were repeated on separate days.
# [1] = 25° C.
# Cryptococcus neoformans = test: Broth microdilution susceptibility assay, Cryptococcus neoformans; type: cell-based; conditions: read-out: Minimum inhibitory concentration
# Excerpt: as §1
# Streptococcus pneumoniae = test: Broth microdilution susceptibility assay, Streptococcus pneumoniae; type: cell-based; conditions: read-out: Minimum inhibitory concentration
# Excerpt: as §1
# Micrococcus luteus = test: Broth microdilution susceptibility assay, Micrococcus luteus; type: cell-based; conditions: read-out: Minimum inhibitory concentration
# Excerpt: as §1
# bacteria and fungi panel = test: Broth microdilution screen, whole panel of bacteria and fungi; type: cell-based; conditions: among the compounds screened, Table III
# Excerpt: as §1
# physchem = conditions: 25 °C, water
# mitosis = conditions: compared with the Z-isomer (1a); cited from earlier work
compound,measurement,setting,value
Sodium combretastatin A-2 3′-O-phosphate [Compound 2a],GI50 Pancreas BXPC-3,BXPC-3,2.1 µg/mL
same,GI50 Breast MCF-7,MCF-7,0.045 µg/mL
same,GI50 CNSGliob SF5268,SF5268,0.042 µg/mL
same,GI50 Lung-NSC NCI-H460,NCI-H460,0.41 µg/mL
same,GI50 Colon KM20L2,KM20L2,3.8 µg/mL
same,GI50 Prostrate DU-145,DU-145,0.053 µg/mL
same,GI50,NCI 60-cell screen,0.165 ± 0.0307 µM
same,Minimum inhibitory concentration,Neisseria gonorrhoeae,8 µg/mL
same,Solubility in water,[1],18000 µg/mL
"COc1ccc(/C=C\c2cc(OC)c3c(c2)OCO3)cc1O [Compound 1a, Combretastatin A-2]",GI50,BXPC-3,0.014 µg/mL
same,GI50,MCF-7; MCF7,0.0042 µg/mL
same,GI50,SF5268; read-out: GI50 CNSGliob SF5268,0.0083 µg/mL
same,GI50,NCI-H460,0.043 µg/mL
same,GI50,KM20L2; KM-20L2,0.47 µg/mL
same,GI50,DU-145; read-out: GI50 Prostrate DU-145,0.0054 µg/mL
same,GI50,NCI 60-cell screen; Homo sapiens,0.0833 ± 0.0173 µM
same,MIC,Cryptococcus neoformans,64 µg/mL
same,MIC,Streptococcus pneumoniae,64 µg/mL
same,MIC,Micrococcus luteus,64 µg/mL
same,MIC,Neisseria gonorrhoeae; read-out: Minimum inhibitory concentration,32 µg/mL
same,antimicrobial spectrum,bacteria and fungi panel,broadest antimicrobial spectra
same,Solubility in water,[1],<1000 µg/mL
same,solubility,physchem,< 1000 µg/mL
"COc1ccc(C=Cc2cc(OC)c3c(c2)OCO3)cc1O (single isomer, unassigned) [E-isomer of combretastatin A-2]",antimitotic activity,mitosis,considerably less antimitotic activity
